The record followed here is patent publication US8410112B2, “Compounds useful as inhibitors of ATR kinase” (Vertex Pharmaceuticals Incorporated, priority 2008, dated 2013).

Each structure is given as a SMILES string.

For the experiment, the target named is T1, full-length ATR (Homo sapiens, UniProt Q13535).
T1 construct: in the presence of 5 nM full-length ATR
T1 sequence (Q13535 whole entry): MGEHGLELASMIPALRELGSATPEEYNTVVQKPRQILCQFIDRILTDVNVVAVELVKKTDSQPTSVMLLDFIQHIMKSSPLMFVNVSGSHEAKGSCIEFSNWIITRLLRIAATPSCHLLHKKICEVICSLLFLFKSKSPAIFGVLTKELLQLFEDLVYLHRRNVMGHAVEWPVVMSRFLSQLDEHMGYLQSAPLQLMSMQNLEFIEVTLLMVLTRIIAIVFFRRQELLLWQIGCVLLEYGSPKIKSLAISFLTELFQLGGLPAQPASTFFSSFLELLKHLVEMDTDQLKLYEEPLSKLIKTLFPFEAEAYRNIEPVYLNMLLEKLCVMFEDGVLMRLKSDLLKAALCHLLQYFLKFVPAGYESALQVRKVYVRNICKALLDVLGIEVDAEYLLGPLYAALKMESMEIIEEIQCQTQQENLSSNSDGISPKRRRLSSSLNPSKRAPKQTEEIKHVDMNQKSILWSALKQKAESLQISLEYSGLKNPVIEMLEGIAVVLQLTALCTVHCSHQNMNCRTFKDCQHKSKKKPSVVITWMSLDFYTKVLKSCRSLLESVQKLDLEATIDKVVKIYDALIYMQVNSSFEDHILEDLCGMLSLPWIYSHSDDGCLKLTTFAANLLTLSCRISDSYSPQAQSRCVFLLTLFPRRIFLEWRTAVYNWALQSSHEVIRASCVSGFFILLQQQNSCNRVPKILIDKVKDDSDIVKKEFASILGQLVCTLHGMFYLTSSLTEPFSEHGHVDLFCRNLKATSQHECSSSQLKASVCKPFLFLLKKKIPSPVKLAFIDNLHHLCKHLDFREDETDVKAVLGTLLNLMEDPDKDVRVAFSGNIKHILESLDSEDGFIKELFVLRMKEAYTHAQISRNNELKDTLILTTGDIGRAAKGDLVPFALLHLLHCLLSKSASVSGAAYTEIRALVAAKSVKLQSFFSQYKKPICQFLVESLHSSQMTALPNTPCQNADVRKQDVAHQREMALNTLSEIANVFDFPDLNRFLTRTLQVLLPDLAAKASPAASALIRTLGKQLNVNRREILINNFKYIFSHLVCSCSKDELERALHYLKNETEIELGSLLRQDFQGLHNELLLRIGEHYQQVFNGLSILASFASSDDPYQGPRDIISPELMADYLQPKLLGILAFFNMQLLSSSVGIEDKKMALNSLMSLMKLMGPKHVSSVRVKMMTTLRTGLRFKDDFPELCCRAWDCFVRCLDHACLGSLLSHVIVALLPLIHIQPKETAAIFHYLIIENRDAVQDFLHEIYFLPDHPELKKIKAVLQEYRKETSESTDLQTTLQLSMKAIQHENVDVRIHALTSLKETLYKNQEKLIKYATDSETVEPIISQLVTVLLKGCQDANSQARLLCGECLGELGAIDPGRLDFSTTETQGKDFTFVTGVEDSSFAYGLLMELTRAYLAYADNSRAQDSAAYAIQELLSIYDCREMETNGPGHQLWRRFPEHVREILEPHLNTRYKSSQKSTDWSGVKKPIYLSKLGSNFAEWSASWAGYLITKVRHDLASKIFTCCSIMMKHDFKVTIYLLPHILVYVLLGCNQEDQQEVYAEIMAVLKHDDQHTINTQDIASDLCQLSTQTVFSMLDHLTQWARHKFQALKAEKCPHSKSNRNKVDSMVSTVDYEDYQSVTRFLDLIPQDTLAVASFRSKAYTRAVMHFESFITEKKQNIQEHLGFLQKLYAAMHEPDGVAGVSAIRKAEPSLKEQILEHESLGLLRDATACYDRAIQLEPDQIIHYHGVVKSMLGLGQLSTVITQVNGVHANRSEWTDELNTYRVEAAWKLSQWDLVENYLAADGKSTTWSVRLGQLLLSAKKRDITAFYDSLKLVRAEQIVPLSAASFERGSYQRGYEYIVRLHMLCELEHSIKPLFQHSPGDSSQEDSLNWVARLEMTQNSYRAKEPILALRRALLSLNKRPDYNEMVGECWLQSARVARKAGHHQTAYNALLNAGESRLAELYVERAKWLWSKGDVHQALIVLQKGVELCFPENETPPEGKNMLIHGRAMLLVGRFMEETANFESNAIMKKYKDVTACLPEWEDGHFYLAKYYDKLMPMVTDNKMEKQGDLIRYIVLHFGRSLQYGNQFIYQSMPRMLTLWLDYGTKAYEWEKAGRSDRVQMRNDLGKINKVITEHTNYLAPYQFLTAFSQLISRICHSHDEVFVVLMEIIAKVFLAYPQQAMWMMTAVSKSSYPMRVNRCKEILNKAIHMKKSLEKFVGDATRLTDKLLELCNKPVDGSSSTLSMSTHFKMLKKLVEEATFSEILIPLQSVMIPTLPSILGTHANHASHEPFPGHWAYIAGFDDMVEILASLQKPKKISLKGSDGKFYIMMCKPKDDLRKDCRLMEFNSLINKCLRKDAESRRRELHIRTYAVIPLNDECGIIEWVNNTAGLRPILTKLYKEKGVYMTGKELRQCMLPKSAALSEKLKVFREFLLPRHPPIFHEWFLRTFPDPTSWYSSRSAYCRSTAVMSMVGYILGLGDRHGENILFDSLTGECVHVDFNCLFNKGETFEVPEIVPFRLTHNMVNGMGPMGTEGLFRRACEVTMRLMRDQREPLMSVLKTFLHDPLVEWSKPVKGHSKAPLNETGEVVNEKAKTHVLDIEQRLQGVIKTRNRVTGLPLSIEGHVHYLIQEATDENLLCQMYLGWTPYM
In words: ATR Inhibition Assay (radioactive-phosphate incorporation). Type of experiment: biochemical. Particulars: Ki(app); 5 nM full-length ATR, 10 μM ATP, 800 μM target peptide, 25° C. In a few lines: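 After a 10-min pre-incubation of compound with 5 nM enzyme at 25 °C, ATP was added to start the reaction (final 10 μM [γ-33P]ATP, 800 μM peptide; Tris/HCl pH 7.5, MgCl2, DTT), which ran 24 h. Incorporated 33P was captured on phosphocellulose filters, and Ki(app) was fitted by non-linear regression.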
For the compound `CCS(=O)(=O)N1CC=C(c2cnc(N)c(-c3nc4ccc(F)c(F)c4[nH]3)n2)CC1` [Compound I-153, 3-(6,7-difluoro-1H-benzo[d]imidazol-2-yl)-5-(1-(ethylsulfonyl)-1,2,3,6-tetrahydropyridin-4-yl)pyrazin-2-amine], the Ki was less than 100 nM.

With `Nc1ncc(N2CC[C@H](N)C2)nc1-c1nc2ccccc2[nH]1` [Compound I-39, (S)-5-(3-aminopyrrolidin-1-yl)-3-(1H-benzo[d]imidazol-2-yl)pyrazin-2-amine], the Ki was 1000 to 10000 nM.

As to `CN(C)CC(=O)N1CC=C(c2cnc(N)c(-c3nnc(-c4ccccc4)o3)n2)CC1` [Compound I-134, 1-(4-(5-amino-6-(5-phenyl-1,3,4-oxadiazol-2-yl)pyrazin-2-yl)-5,6-dihydropyridin-1(2H)-yl)-2-(dimethylamino)ethanone], the Ki was 100 to 1000 nM.

For `Nc1ncc(N2CCN(S(=O)(=O)C3CC3)CC2)nc1C(=O)Nc1ccccn1` [Compound I-118, 3-amino-6-(4-(cyclopropylsulfonyl)piperazin-1-yl)-N-(pyridin-2-yl)pyrazine-2-carboxamide], the Ki was 100 to 1000 nM.

As to `CCC(=O)NC1CC[C@H]2CN(c3cnc(N)c(-c4nnc(-c5ccc(CNC)cc5)o4)n3)C[C@@H]12` (stereo partly drawn) [Compound I-355, N-((3aS,6aR)-2-(5-Amino-6-(5-(4-((methylamino)methyl)phenyl)-1,3,4-oxadiazol-2-yl)pyrazin-2-yl)octahydrocyclopenta[c]pyrrol-4-yl)propionamide], the Ki lay within 100 to 1000 nM.

With `CCC(=O)N1CC=C(c2cnc(N)c(-c3nc4ccccc4[nH]3)n2)CC1` [Compound I-309, 1-[4-[5-amino-6-(1H-benzimidazol-2-yl)pyrazin-2-yl]-3,6-dihydro-2H-pyridin-1-yl]propan-1-one], the Ki was less than 100 nM.

As to `Nc1ncc(N2CCN(C(=O)c3cccnc3)CC2)nc1-c1nnc(-c2ccccc2)o1` [Compound I-183, (4-(5-amino-6-(5-phenyl-1,3,4-oxadiazol-2-yl)pyrazin-2-yl)piperazin-1-yl)(pyridin-3-yl)methanone], the Ki was in the range of 100 to 1000 nM.

Regarding `CNCc1ccc(-c2nnc(-c3nc(C4CC4C(=O)N4CC[C@@H](N)C4)cnc3N)o2)cc1` (stereo partly drawn) [Compound I-374, (2-(5-Amino-6-(5-(4-((methylamino)methyl)phenyl)-1,3,4-oxadiazol-2-yl)pyrazin-2-yl)cyclopropyl)((R)-3-aminopyrrolidin-1-yl)methanone], the Ki lay within 1000 to 10000 nM.

On to `Nc1ncc(N2CCN(S(=O)(=O)Cc3ccccc3)CC2)nc1-c1nc2ccccc2[nH]1` [Compound I-106, 3-(1H-benzo[d]imidazol-2-yl)-5-(4-(benzylsulfonyl)piperazin-1-yl)pyrazin-2-amine], for which the Ki lay within 100 to 1000 nM.

Take `Nc1ncc(C2=CCN(C(=O)c3ccccn3)CC2)nc1-c1nnc(-c2ccccc2)o1` [Compound I-132, (4-(5-amino-6-(5-phenyl-1,3,4-oxadiazol-2-yl)pyrazin-2-yl)-5,6-dihydropyridin-1(2H)-yl)(pyridin-2-yl)methanone]: the Ki was less than 100 nM.

For `CN(C)C(=O)N1CC=C(c2cnc(N)c(-c3nnc(-c4ccccc4)o3)n2)CC1` [Compound I-220, 4-(5-amino-6-(5-phenyl-1,3,4-oxadiazol-2-yl)pyrazin-2-yl)-N,N-dimethyl-5,6-dihydropyridine-1(2H)-carboxamide], the Ki was less than 100 nM.

Turning to `CN(C)S(=O)(=O)N1CC=C(c2cnc(N)c(-c3nnc(-c4ccccc4)o3)n2)CC1` [Compound I-84, 4-(5-amino-6-(5-phenyl-1,3,4-oxadiazol-2-yl)pyrazin-2-yl)-N,N-dimethyl-5,6-dihydropyridine-1(2H)-sulfonamide], the Ki is less than 100 nM.

In the case of `Nc1ncc(N2CCN(C(=O)C3CCCC3)CC2)nc1C(=O)Nc1ccccn1` [Compound I-144, 3-amino-6-(4-(cyclopentanecarbonyl)piperazin-1-yl)-N-(pyridin-2-yl)pyrazine-2-carboxamide], the Ki was 100 to 1000 nM.

As for `Nc1ncc(C2=CCN(C(=O)c3cccnc3)CC2)nc1-c1nc2ccccc2[nH]1` [Compound I-191], the Ki was in the range of 100 to 1000 nM.

`CNC(=O)[C@@H]1CCN(c2cnc(N)c(-c3nc4ccc(C)cc4[nH]3)n2)C1` [Compound I-77, (R)-1-(5-amino-6-(6-methyl-1H-benzo[d]imidazol-2-yl)pyrazin-2-yl)-N-methylpyrrolidine-3-carboxamide]: the Ki fell in the range of 1000 to 10000 nM.

On to `Nc1ncc(C2=CCN(S(=O)(=O)c3cccs3)CC2)nc1-c1nnc(-c2ccccc2)o1` [Compound I-245, 3-(5-phenyl-1,3,4-oxadiazol-2-yl)-5-(1-(thiophen-2-ylsulfonyl)-1,2,3,6-tetrahydropyridin-4-yl)pyrazin-2-amine], for which the Ki was less than 100 nM.

As for `Nc1ncc(N2CCN(C(=O)C3CCOCC3)CC2)nc1C(=O)Nc1ccccn1` [Compound I-230, 3-amino-N-(pyridin-2-yl)-6-(4-(tetrahydro-2H-pyran-4-carbonyl)piperazin-1-yl)pyrazine-2-carboxamide], the Ki lay within 1000 to 10000 nM.

Take `Cc1ccc2nc(-c3nc(N4CCNC(=O)C4)cnc3N)[nH]c2c1` [Compound I-7, 4-(5-amino-6-(6-methyl-1H-benzo[d]imidazol-2-yl)pyrazin-2-yl)piperazin-2-one]: the Ki lay in the range of 100 to 1000 nM.

As to `Nc1ncc(N2CCN(CCO)CC2)nc1-c1nnc(-c2ccccc2)o1` [Compound I-306, 2-[4-[5-amino-6-(5-phenyl-1,3,4-oxadiazol-2-yl)pyrazin-2-yl]piperazin-1-yl]ethanol], the Ki is 1000 to 10000 nM.

`Nc1ncc(N2CCN(S(=O)(=O)c3ccsc3)CC2)nc1-c1nnc(-c2ccccc2)o1` [Compound I-98, 3-(5-phenyl-1,3,4-oxadiazol-2-yl)-5-(4-(thiophen-3-ylsulfonyl)piperazin-1-yl)pyrazin-2-amine]: the Ki was in the range of 100 to 1000 nM.

Regarding `Nc1ncc(C2=CCN(C(=O)COc3ccccc3)CC2)nc1-c1nc2ccccc2[nH]1` [Compound I-137, 1-(4-(5-amino-6-(1H-benzo[d]imidazol-2-yl)pyrazin-2-yl)-5,6-dihydropyridin-1(2H)-yl)-2-phenoxyethanone], the Ki was in the range of 100 to 1000 nM.

For `CCC(=O)N1CCN(c2cnc(N)c(-c3nnc(-c4ccc(CNC)cc4)o3)n2)C[C@@H]1C(C)C` [Compound I-326, 1-[(2S)-4-[5-Amino-6-[5-[4-(methylaminomethyl)phenyl]-1,3,4-oxadiazol-2-yl]pyrazin-2-yl]-2-isopropyl-piperazin-1-yl]propan-1-one], the Ki is less than 100 nM.

Regarding `CCS(=O)(=O)N1CCN(c2cnc(N)c(-c3cn(-c4ccc(N)cc4)nn3)n2)CC1` [Compound I-160, 3-(1-(4-aminophenyl)-1H-1,2,3-triazol-4-yl)-5-(4-(ethylsulfonyl)piperazin-1-yl)pyrazin-2-amine], the Ki was 100 to 1000 nM.

As for `CN(C)[C@@H]1CCN(C(=O)N2CC=C(c3cnc(N)c(-c4nc5ccccc5[nH]4)n3)CC2)C1` [Compound I-278, (R)-(4-(5-amino-6-(1H-benzo[d]imidazol-2-yl)pyrazin-2-yl)-5,6-dihydropyridin-1(2H)-yl)(3-(dimethylamino)pyrrolidin-1-yl)methanone], the Ki was in the range of 100 to 1000 nM.

On to `CCS(=O)(=O)NC1CN(c2cnc(N)c(-c3nnc(-c4ccccc4)o3)n2)C1` [Compound I-302, N-[1-[5-amino-6-(5-phenyl-1,3,4-oxadiazol-2-yl)pyrazin-2-yl]azetidin-3-yl]ethanesulfonamide], for which the Ki was 100 to 1000 nM.

As for `CCNC(=O)C1CC1c1cnc(N)c(-c2nnc(-c3ccc(CNC)cc3)o2)n1` (stereo not drawn) [Compound I-375, 2-[5-Amino-6-[5-[4-(methylaminomethyl)phenyl]-1,3,4-oxadiazol-2-yl]pyrazin-2-yl]-N-ethyl-cyclopropanecarboxamide], the Ki fell in the range of 100 to 1000 nM.

As for `CC(C)(C)C(=O)N[C@H]1CCN(c2cnc(N)c(-c3nc4ccccc4[nH]3)n2)C1` [Compound I-111, (S)-N-(1-(5-amino-6-(1H-benzo[d]imidazol-2-yl)pyrazin-2-yl)pyrrolidin-3-yl)-2,2-dimethylpropanamide], the Ki was 100 to 1000 nM.

For the compound `Nc1ncc(C2=CCN(c3ccccc3)CC2)nc1-c1nc2ccccc2[nH]1` [Compound I-159, 3-(1H-benzo[d]imidazol-2-yl)-5-(1-phenyl-1,2,3,6-tetrahydropyridin-4-yl)pyrazin-2-amine], the Ki is 100 to 1000 nM.

In the case of `CCS(=O)(=O)N1CCN(c2cnc(N)c(-c3nc4ccccc4s3)n2)CC1` [Compound I-17, 3-(benzo[d]thiazol-2-yl)-5-(4-(ethylsulfonyl)piperazin-1-yl)pyrazin-2-amine], the Ki lay in the range of 100 to 1000 nM.

On to `Nc1ncc(N2CCN(C(=O)N3CCCC3)CC2)nc1-c1nc2ccccc2[nH]1` [Compound I-267, (4-(5-amino-6-(1H-benzo[d]imidazol-2-yl)pyrazin-2-yl)piperazin-1-yl)(pyrrolidin-1-yl)methanone], for which the Ki was 1000 to 10000 nM.

Turning to `CCC(=O)N1CCN(c2cnc(N)c(-c3nnc(-c4ccc(CNC)cc4)o3)n2)CC1(C)C` [Compound I-329, 1-[4-[5-Amino-6-[5-[4-(methylaminomethyl)phenyl]-1,3,4-oxadiazol-2-yl]pyrazin-2-yl]-2,2-dimethyl-piperazin-1-yl]propan-1-one], the Ki was 1000 to 10000 nM.

On to `Nc1ncc(C2=CCN(C(=O)c3ccccc3)CC2)nc1-c1nc2ccccc2[nH]1` [Compound I-82, (4-(5-amino-6-(1H-benzo[d]imidazol-2-yl)pyrazin-2-yl)-5,6-dihydropyridin-1(2H)-yl)(phenyl)methanone], for which the Ki is less than 100 nM.

As to `Nc1ncc(C2=CCN(C(=O)COc3ccccc3)CC2)nc1-c1nnc(-c2ccccc2)o1` [Compound I-126, 1-(4-(5-amino-6-(5-phenyl-1,3,4-oxadiazol-2-yl)pyrazin-2-yl)-5,6-dihydropyridin-1(2H)-yl)-2-phenoxyethanone], the Ki is less than 100 nM.
